# Results as given in US20170050957A1, “4-AMINO-6-(HETEROCYCLIC)PICOLINATES AND 6-AMINO-2-(HETEROCYCLIC)PYRIMIDINE-4-CARBOXYLATES AND THEIR USE AS HERBICIDES” (Dow AgroSciences LLC, priority 2013, published 2017).
# Read-outs that look alike come from different tables or passages of the source.
# Key:
# [1] = test system: Key Broadleaf Weed and Crop Species; assay: Post-emergent Test II herbicidal activity (Table 15); assay type: in vivo; conditions: post-emergence, 336 h, 14 d; for pest or weed control at 140 g/ha: 140 g ai/ha; for pest or weed control at 35 g/ha: 35 g ai/ha; for pest or weed control at 70 g/ha: 70 g ai/ha
# Description: (§1) Post-emergent Test II: Seeds or nutlets of the desired test plant species were planted in Sun Gro Metro-Mix® 360 planting mixture, which typically has a pH of 6.0 to 6.8 and an organic matter content of about 30 percent, in plastic pots with a surface area of 64 square centimeters. When required to ensure good germination and healthy plants, a fungicide treatment and/or other chemical or physical treatment was applied. The plants were grown for 7-21 d in a greenhouse with an approximate 15 h photoperiod which was maintained at about 23-29° C. during the day and 22-28° C. during the night. Nutrients and water were added on a regular basis and supplemental lighting was provided with overhead metal halide 1000-Watt lamps as necessary. The plants were employed for testing when they reached the first or second true leaf stage.
# (§2) A weighed amount, determined by the highest rate to be tested, of each test compound was placed in a 25 mL glass vial and was dissolved in 4 mL of a 97:3 v/v mixture of acetone and DMSO to obtain concentrated stock solutions. […] The concentrated stock solutions obtained were diluted with 20 mL of an aqueous mixture containing acetone, water, isopropyl alcohol, DMSO, Atplus 411F crop oil concentrate, and Triton® X-155 surfactant in a 48.5:39:10:1.5:1.0:0.02 v/v ratio to obtain spray solutions containing the highest application rates. Additional application rates were obtained by serial dilution of 12 mL of the high rate solution into a solution containing 2 mL of 97:3 v/v mixture of acetone and DMSO and 10 mL of an aqueous mixture containing acetone, water, isopropyl alcohol, DMSO, Atplus 411F crop oil concentrate, and Triton X-155 surfactant in a 48.5:39:10:1.5:1.0:0.02 v/v ratio to obtain 1/2×, 1/4×, 1/8× and 1/16× rates of the high rate. Compound requirements are based upon a 12 mL application volume at a rate of 187 liters per hectare (L/ha). Formulated compounds were applied to the plant material with an overhead Mandel track sprayer equipped with 8002E nozzles calibrated to deliver 187 L/ha over an application area of 0.503 square meters at a spray height of 18 inches (43 cm) above the average plant canopy height. Control plants were sprayed in the same manner with the solvent blank.
# (§3) The treated plants and control plants were placed in a greenhouse as described above and watered by subirrigation to prevent wash-off of the test compounds. After 14 d, the condition of the test plants as compared with that of the untreated plants was determined visually and scored on a scale of 0 to 100 percent where 0 corresponds to no injury and 100 corresponds to complete kill.
# [2] = test system: Key Grass and Sedge Weeds as well as Grass Crops; assay: Post-emergent Test II herbicidal activity (Table 16); assay type: in vivo; conditions: post-emergence, 336 h, 140 g ai/ha
# Description: as §1, §2, §3
# [3] = Abutilon theophrasti, velvetleaf (Abutilon theophrasti), read-out: Visual Growth Reduction (%) 14 Days After Application, ABUTH
# [4] = Amaranthus retroflexus, redroot pigweed (Amaranthus retroflexus), read-out: Visual Growth Reduction (%) 14 Days After Application, AMARE
# [5] = Brassica napus, oilseed rape, canola (Brassica napus), read-out: Visual Growth Reduction (%) 14 Days After Application, BRSNN
# [6] = Chenopodium album, lambsquarters (Chenopodium album), read-out: Visual Growth Reduction (%) 14 Days After Application, CHEAL
# [7] = Euphorbia heterophylla, wild poinsettia (Euphorbia heterophylla), read-out: Visual Growth Reduction (%) 14 Days After Application, EPHHL
# [8] = Helianthus annuus, sunflower (Helianthus annuus), read-out: Visual Growth Reduction (%) 14 Days After Application, HELAN
# [9] = Cyperus esculentus, yellow nutsedge (Cyperus esculentus), 14 days after application, read-out: Visual Growth Reduction (%) 14 Days After Application CYPES
# [10] = Echinochloa crus-galli, barnyardgrass (Echinochloa crus-galli), 14 days after application, read-out: Visual Growth Reduction (%) 14 Days After Application ECHCG
# [11] = Oryza sativa, rice (Oryza sativa), 14 days after application, read-out: Visual Growth Reduction (%) 14 Days After Application ORYSA
# [12] = Setaria faberi, giant foxtail (Setaria faberi), 14 days after application, read-out: Visual Growth Reduction (%) 14 Days After Application SETFA
# [13] = Triticum aestivum, wheat, spring (Triticum aestivum), 14 days after application, read-out: Visual Growth Reduction (%) 14 Days After Application TRZAS
# [14] = Zea mays, maize, corn (Zea mays), 14 days after application, read-out: Visual Growth Reduction (%) 14 Days After Application ZEAMX
melting point [°C],Structure (SMILES),"pest or weed control at 140 g/ha [1, 3] [%]","pest or weed control at 140 g/ha [1, 4] [%]","pest or weed control at 140 g/ha [1, 5] [%]","pest or weed control at 140 g/ha [1, 6] [%]","pest or weed control at 140 g/ha [1, 7] [%]","pest or weed control at 140 g/ha [1, 8] [%]","pest or weed control at 140 g/ha [2, 9] [%]","pest or weed control at 140 g/ha [2, 10] [%]","pest or weed control at 140 g/ha [2, 11] [%]","pest or weed control at 140 g/ha [2, 12] [%]","pest or weed control at 140 g/ha [2, 13] [%]","pest or weed control at 140 g/ha [2, 14] [%]",other results
183 to 185,Nc1c(F)c(-c2cccc3ccsc23)nc(C(=O)O)c1Cl [Compound 3.25],0 to 29,95 to 100,75 to 84,95 to 100,0 to 29,45 to 59,0 to 29,0 to 29,0 to 29,0 to 29,0 to 29,0 to 29,
187 to 190,COC(=O)c1nc(-c2ccc3cnn(C)c3c2)c(F)c(N)c1Cl [Compound 4.07],45 to 59,,45 to 59,0 to 29,60 to 74,95 to 100,0 to 29,0 to 29,0 to 29,0 to 29,0 to 29,0 to 29,
170 to 173,Nc1c(F)c(-c2cccc3occc23)nc(C(=O)O)c1Cl [Compound 2.17],75 to 84,95 to 100,75 to 84,95 to 100,95 to 100,85 to 94,,,,,,,"pest or weed control at 140 g/ha ([2]; Cyperus esculentus, yellow nutsedge (Cyperus esculentus), 14 d, read-out: Visual Growth Reduction (%) 14 Days After Application, CYPES): 95 to 100%; pest or weed control at 140 g/ha ([2]; Echinochloa crus-galli, barnyardgrass (Echinochloa crus-galli), 14 d, read-out: Visual Growth Reduction (%) 14 Days After Application, ECHCG): 75 to 84%; pest or weed control at 140 g/ha ([2]; Oryza sativa, rice (Oryza sativa), 14 d, read-out: Visual Growth Reduction (%) 14 Days After Application, ORYSA): 0 to 29%; pest or weed control at 140 g/ha ([2]; Setaria faberi, giant foxtail (Setaria faberi), 14 d, read-out: Visual Growth Reduction (%) 14 Days After Application, SETFA): 0 to 29%; pest or weed control at 140 g/ha ([2]; Triticum aestivum, wheat, spring (Triticum aestivum), 14 d, read-out: Visual Growth Reduction (%) 14 Days After Application, TRZAS): 0 to 29%; pest or weed control at 140 g/ha ([2]; Zea mays, maize, corn (Zea mays), 14 d, read-out: Visual Growth Reduction (%) 14 Days After Application, ZEAMX): 30 to 44%"
160 to 164,Nc1c(Cl)c(C(=O)O)nc(-c2ccc3cc[nH]c3c2)c1Cl [Compound 1.06],0 to 29,75 to 84,85 to 94,95 to 100,0 to 29,0 to 29,,,,,,,"pest or weed control at 35 g/ha [1, 3]: 0 to 29%; pest or weed control at 70 g/ha [1, 3]: 0 to 29%; pest or weed control at 35 g/ha [1, 4]: 95 to 100%; pest or weed control at 70 g/ha [1, 4]: 85 to 94%; pest or weed control at 35 g/ha [1, 5]: 75 to 84%; pest or weed control at 70 g/ha [1, 5]: 85 to 94%; pest or weed control at 35 g/ha [1, 6]: 85 to 94%; pest or weed control at 70 g/ha [1, 6]: 95 to 100%; pest or weed control at 35 g/ha [1, 7]: 0 to 29%; pest or weed control at 70 g/ha [1, 7]: 0 to 29%; pest or weed control at 35 g/ha [1, 8]: 0 to 29%; pest or weed control at 70 g/ha [1, 8]: 0 to 29%"
